Reference: PMC4020785 (PLoS ONE, 2014)
pEC50: −log10 of the molar value.

Legend:
[1] = test system: HIV LTR in J-Lat clones; assay: LTR-driven GFP expression in J-Lat clones; assay type: cell-based, HIV-1
Description: J-Lat cells are Jurkat cells stably transfected by an HIV genome whose nef sequence was replaced by the GFP gene. Also, a frameshift mutation was introduced to the env gene to prevent virus spread. […] To test the ISDs, a million cells of each clone were treated with different concentrations of each compound (ING-A, ING-B, ING-C, prostratin and PMA) at 37°C. TNF-α (10 ng/mL) was used as a positive control. After 48 h, cells were collected, washed with saline solution (PBS) and GFP expression was evaluated in a FACScalibur cytometer (BD Biosciences). Data were analyzed with Cell Quest Pro software (BD Biosciences).

[2] = test system: latent HIV in CD4+ T cells from virally suppressed patients; assay: HIV pol RNA (RT-qPCR) in CD4+ T cells from HIV+ HAART-treated patients; assay type: cell-based, human; settings: CD4+ T cells of five HIV+ HAART-treated patients, 1 µM, 24 h
Source text: Whole blood from five HIV+ patients at the Hospital Universitário Gaffrée e Guinle (Rio de Janeiro, Brazil) was collected for reactivation experiments. All individuals enrolled in the study voluntarily and provided written informed consent. Patients presented undetectable viral load (<50 copies/mL), more than 500 CD4+ T cells/mm^3 and have been HAART-treated for at least 10 months (Table 1). PBMCs where isolated following a Ficoll-Paque Plus protocol (GE Healthcare, UK). CD4+ T cells were selected by magnetic beads as described above, and 10^6 cells were incubated in R10 containing 1 µM of the testing compounds (ING-B, prostratin or PMA). DMSO 1% was used as negative control. The antiretroviral EFV (10 µM) was added to all conditions to prevent viral spread. After 24 h, cells were collected for RNA isolation using the All Prep Qiagen kit (Qiagen), as instructed by the manufacturer.
Total RNA from CD4+ T cells was analyzed by RT-qPCR using primers and probe (Life Technologies) specific for the HIV-pol region, as following: forward primer Pol-F (5'-[…] TTT T-3'), reverse primer Pol-R (5'-[…]-3') and a minor groove binder (MGB) probe Pol-Pb (5'-VIC-ATC CCC CCT TTT CTT T-3'). […]

[3] = test system: HIV-1 p24 in J-Lat clones; assay: HIV-1 p24 production in J-Lat clones (ELISA); assay type: cell-based; settings: J-Lat clones, GFP and p24 taken together
Description: ACH-2 and J1.1 are clonal cell lines derived from CEM [52] and Jurkat cells, respectively, after infection with HIV-1. U1 cells were derived from the human promonocyte cell line U937 and chronically infected with HIV-1 [54]. Each cell line (1×10^6 cells) was incubated in the presence of 1 µM of diterpenes (ING-A, ING-B, ING-C, prostratin and PMA) or 10 ng/mL TNF-α for 48 h at 37°C. After incubation, cells were centrifuged and supernatants were collected for the quantitation of gag p24 antigen by ELISA, following the protocol described by the manufacturer (Perkin Elmer).
To assess whether the GFP expression levels induced by ISDs in J-Lats led to viral production, all five clones were stimulated with 1 µM of each compound for 48 h and production of HIV-1 p24 was measured in the culture supernatant by ELISA. Levels of p24 were proportional to GFP expression in clones 6.3 and 9.2, whereas levels in clone 8.4 were lower when compared to GFP (Figure 3A).

[4] = test system: MT-4 cells; assay: Cell cycle analysis (propidium iodide) in MT-4 cells; assay type: cell-based; settings: 48 h
Description: Human PBMCs and MT-4 cells were incubated at 37°C with different concentrations of ING-B for 48 h. After incubation, cells were collected, washed twice with PBS, and stained with 200 µl of propidium iodide (50 µg/mL, diluted in Hanks buffer with 1 mg/mL RNAse and 0.2% Triton X-100) for 15 min on ice before cytometry analysis.

[5] = parameters: method as in personal communication from Bioqual – Rockville, USA; settings: Rhesus macaques, orally treated at similar dose; ref personal communication from Bioqual – Rockville, USA; cited from earlier work
[6] = test system: HIV-1 clone NL4.3 (subtype B); assay: HIV-1 NL4.3 (subtype B) infection of MT-4 cells, Cell Titer Blue readout; assay type: cell-based
Description: (§1) Human PMBCs were incubated with 100 U recombinant IL-2 (Sigma-Aldrich) and 5 µg/mL phytohemagglutinin-P (PHA-P) (Difco) for 5 days at 37°C. MT-4 cells (1×10^6) or treated PBMCs (1.2×10^8) were infected with HIV-1 clone NL-4.3 or ZM247Fv-1 (MOI of 0.001) by spinoculation (1200 g at room temperature for 2 h). Uninfected cells were used as negative control and were also subjected to the spinoculation process. After spinoculation, supernatants were discarded and cells were resuspended in 10 mL of R10. Cells from each condition were then added to wells (96-well plate) containing serial dilutions of each ISD. For MT-4 cells, each dilution was done in sextuplicates and, for PBMCs, in triplicates. Cells were also incubated with different concentrations of ZDV as positive control. After 5 days in culture, Cell Titer Blue was added to each well and cells were incubated for additional 24 h. The median effective concentration for each drug is defined as EC50. In parallel with the infectivity assay, the same cell types were treated with different concentrations of drugs to determine their cytotoxicity, following the protocol described above. Drug concentration that results in a 50% decrease in viable cells is defined as the CC50 for each compound. EC50 was calculated according to Spearman-Karber and therapeutic index was defined by the ratio between CC50 and EC50 [55].
(§2) All statistical analyses were performed using program GraphPism version 6.0. Titrations for TCID50 infectivity were calculated by the Spearman-Karber method. Dose response curves to ISDs with HIV-1 subtype B and C were done using non-linear regression and were fit to the Hill equation.

[7] = test system: HIV-1 clone NL4.3 (subtype B); assay: HIV-1 NL4.3 (subtype B) infection of human PBMCs, Cell Titer Blue readout; assay type: cell-based
Description: as §1, §2

[8] = parameters: method as in earlier work; settings: dogs, oral dosing; ref personal communication from Aurigon Life Science – Tutzing, Germany; cited from earlier work

SMILES: CCCCCC(=O)O[C@H]1C(C)=C[C@]23C(=O)[C@@H](C=C(CO)[C@@H](O)[C@]12O)[C@H]1[C@@H](C[C@H]3C)C1(C)C [ING-B, ingenol-3-hexanoate]
- GFP induction compared with other compounds ([1]; J-Lat clone 10.6, 48 h): slightly more active than ING-A, ING-C and prostratin
- levels of GFP expression, rank order ([1]; J-Lat clones 9.2 and 10.6, 48 h, all concentrations tested): PMA = ING-B > ING-A = ING-C > prostratin
- HIV transcription (in words) [2]: levels similar to PMA treatment
- HIV-LTR activation, overall comparison [3]: equivalent levels to PMA and TNF-α
- cell cycle phases [4]: did not alter cell cycle phases
- side effects [5]: negligible side effects
- pEC50 ([6]; Human immunodeficiency virus 1, MT4): 7.66
- TI (CC50/EC50) ([6]; MT-4 cells, Subtype B (X4)): 1272
- TI (CC50/EC50) ([7]; Human PBMC, Subtype B (X4)): 714.3
- pEC50 ([7]; Human immunodeficiency virus 1, PBMC): 7.25
- no-observed-adverse-effect level [8]: 4 mg/kg/day
